From patent US11142525B2 (Pfizer Inc., priority 2018, dated 2021)
Read-outs that look alike come from different tables or passages of the source.

Legend:
[1] = biological target: human full-length recombinant HPK1 (Homo sapiens (Human), UniProt Q92918); assay: HPK1 biochemical enzyme assay, microfluidic mobility shift assay (MSA); details: read-out: HPK1 Enzyme Assay_Ki
[2] = tested on: phospho-SLP-76 (Ser376) in Jurkat cells; assay: Phospho-SLP-76 (Ser376) Homogeneous Time Resolved Fluorescence (HTRF) assay in Jurkat cells; type: cell-based; details: Homo sapiens, read-out: SLP76 Assay_IC50
How it was run: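 Jurkat cells pre-treated 30 min with compounds (10 μM to 0.1 nM, 11-point, 0.1% DMSO), then stimulated with 200 μg/mL F(ab)2-complexed anti-CD3 (UCHT1) for 15 min at 37 °C. Lysate phospho-SLP-76 detected by HTRF after overnight antibody incubation; IC50 from four-parameter fit.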

[3] = mobility shift assay, 75 μM ATP, Morrison equation, tight-binding competitive inhibition
[4] = 30 min pre-treatment, anti-CD3 stimulation 15 min, HTRF
[5] = Phospho-SLP-76 (Ser376) HTRF, anti-CD3 stimulation

Sequence of human full-length recombinant HPK1 (Q92918 whole entry): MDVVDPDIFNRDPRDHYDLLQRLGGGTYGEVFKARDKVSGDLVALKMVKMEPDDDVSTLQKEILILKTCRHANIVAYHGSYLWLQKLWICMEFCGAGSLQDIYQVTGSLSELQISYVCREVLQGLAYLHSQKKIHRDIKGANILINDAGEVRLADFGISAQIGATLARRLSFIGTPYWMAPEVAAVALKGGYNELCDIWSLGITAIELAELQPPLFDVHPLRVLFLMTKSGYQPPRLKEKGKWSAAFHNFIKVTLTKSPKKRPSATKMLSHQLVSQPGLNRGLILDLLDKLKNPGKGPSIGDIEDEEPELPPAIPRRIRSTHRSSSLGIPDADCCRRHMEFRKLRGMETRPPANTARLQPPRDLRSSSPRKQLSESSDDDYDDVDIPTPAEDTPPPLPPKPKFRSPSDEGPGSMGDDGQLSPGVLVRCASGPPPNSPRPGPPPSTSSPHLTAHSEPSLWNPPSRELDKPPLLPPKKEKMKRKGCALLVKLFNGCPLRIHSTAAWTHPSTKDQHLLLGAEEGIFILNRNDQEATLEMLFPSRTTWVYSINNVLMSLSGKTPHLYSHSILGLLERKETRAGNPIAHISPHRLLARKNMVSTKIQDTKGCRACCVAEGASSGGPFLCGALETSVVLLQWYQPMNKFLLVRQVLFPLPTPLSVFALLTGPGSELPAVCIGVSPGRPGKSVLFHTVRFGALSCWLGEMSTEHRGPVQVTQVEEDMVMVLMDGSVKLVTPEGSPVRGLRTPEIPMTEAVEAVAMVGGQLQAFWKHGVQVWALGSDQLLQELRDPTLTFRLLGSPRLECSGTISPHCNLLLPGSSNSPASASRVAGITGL

| SMILES | Ki [1, 3] [nM] | IC50 [2, 4] [nM] | Ki ([1]; HPK1 mobility shift assay) [nM] | IC50 [2, 5] [nM] |
| --- | --- | --- | --- | --- |
| CCN(C)c1cc2c(c(CNC)n1)CN(c1cccc(-c3nncn3C(C)C)n1)C2=O [Example 48, 6-[ethyl(methyl)amino]-4-[(methylamino)methyl]-2-{6-[4-(propan-2-yl)-4H-1,2,4-triazol-3-yl]pyridin-2-yl}-2,3-dihydro-1H-pyrrolo[3,4-c]pyridin-1-one] | 0.14 | 94 | – | – |
| CC(C)n1cnnc1-c1cccc(N2Cc3c(cc(N(C)C)nc3CN)C2=O)n1 [Example 12, 4-(aminomethyl)-6-(dimethylamino)-2-{6-[4-(propan-2-yl)-4H-1,2,4-triazol-3-yl]pyridin-2-yl}-2,3-dihydro-1H-pyrrolo[3,4-c]pyridin-1-one] | 0.2 | 155 | – | – |
| CNCc1nc(N2[C@H](C)C[C@H]2C)cc2c1CN(c1cccc(-c3nncn3C(C)C)n1)C2=O [Example 28, 6-[(2R,4R)-2,4-dimethylazetidin-1-yl]-4-[(methylamino)methyl]-2-{6-[4-(propan-2-yl)-4H-1,2,4-triazol-3-yl]pyridin-2-yl}-2,3-dihydro-1H-pyrrolo[3,4-c]pyridin-1-one] | 0.41 | 119 | – | – |
| CCN(c1cc2c(c(CN)n1)CN(c1cccc(-c3nncs3)n1)C2=O)C(C)C [Example 140, 4-(aminomethyl)-6-[ethyl(propan-2-yl)amino]-2-[6-(1,3,4-thiadiazol-2-yl)pyridin-2-yl]-2,3-dihydro-1H-pyrrolo[3,4-c]pyridin-1-one] | – | – | 2.07 | 464 |
| C[C@H]1COC(=O)N1c1cccc(N2Cc3c(cc(C(C)(C)C)nc3CN)C2=O)n1 [Example 36, 4-(aminomethyl)-6-tert-butyl-2-{6-[(4S)-4-methyl-2-oxo-1,3-oxazolidin-3-yl]pyridin-2-yl}-2,3-dihydro-1H-pyrrolo[3,4-c]pyridin-1-one] | 5.1 | 1110 | – | – |
| CC[C@@H](CC(F)(F)F)n1cnnc1-c1cccc(N2Cc3c(cc(N(C)C(C)C)nc3CNC)C2=O)n1 (single isomer, unassigned) [Example 72, 4-[(methylamino)methyl]-6-[methyl(propan-2-yl)amino]-2-(6-{4-[(3ξ)-1,1,1-trifluoropentan-3-yl]-4H-1,2,4-triazol-3-yl}pyridin-2-yl)-2,3-dihydro-1H-pyrrolo[3,4-c]pyridin-1-one] | – | – | 4.48 | 1020 |
| C[C@@H]1CCCN1c1cc2c(c(CN)n1)CN(c1cccc(N3C(=O)OC[C@@H]3CF)n1)C2=O [Example 68, 4-(aminomethyl)-2-{6-[(4R)-4-(fluoromethyl)-2-oxo-1,3-oxazolidin-3-yl]pyridin-2-yl}-6-[(2R)-2-methylpyrrolidin-1-yl]-2,3-dihydro-1H-pyrrolo[3,4-c]pyridin-1-one] | < 0.07 | 50 | – | – |
| CCC(CC)n1cnnc1-c1cccc(N2Cc3c(cc(C4(C)CC4)nc3CN)C2=O)n1 [Example 126, 4-(aminomethyl)-6-(1-methylcyclopropyl)-2-{6-[4-(pentan-3-yl)-4H-1,2,4-triazol-3-yl]pyridin-2-yl}-2,3-dihydro-1H-pyrrolo[3,4-c]pyridin-1-one] | – | – | 0.8 | 114 |
| CCn1cnnc1-c1cccc(N2Cc3c(cc(C4CCC4)nc3CNC)C2=O)n1 [Example 101, 6-cyclobutyl-2-[6-(4-ethyl-4H-1,2,4-triazol-3-yl)pyridin-2-yl]-4-[(methylamino)methyl]-2,3-dihydro-1H-pyrrolo[3,4-c]pyridin-1-one] | – | – | 0.94 | 217 |
| C[C@H]1COC(=O)N1c1cccc(N2Cc3c(cc(C4(C)CC4)nc3CN)C2=O)n1 [Example 42, 4-(aminomethyl)-6-(1-methylcyclopropyl)-2-{6-[(4S)-4-methyl-2-oxo-1,3-oxazolidin-3-yl]pyridin-2-yl}-2,3-dihydro-1H-pyrrolo[3,4-c]pyridin-1-one] | 0.33 | 192 | – | – |
| C[C@H]1COC(=O)N1c1cccc(N2Cc3c(cc(N(C)C)nc3CN)C2=O)n1 [Example 32, 4-(aminomethyl)-6-(dimethylamino)-2-{6-[(4S)-4-methyl-2-oxo-1,3-oxazolidin-3-yl]pyridin-2-yl}-2,3-dihydro-1H-pyrrolo[3,4-c]pyridin-1-one] | 0.34 | 210 | – | – |
| CCc1nnc(-c2cccc(N3Cc4c(cc(N5CCC[C@H]5C)nc4CNC)C3=O)n2)n1CC [Example 66, 2-[6-(4,5-diethyl-4H-1,2,4-triazol-3-yl)pyridin-2-yl]-4-[(methylamino)methyl]-6-[(2R)-2-methylpyrrolidin-1-yl]-2,3-dihydro-1H-pyrrolo[3,4-c]pyridin-1-one] | 0.52 | 108 | – | – |

Second part, the compound after the results:

| Ki [1, 3] [nM] | IC50 [2, 4] [nM] | Ki ([1]; HPK1 mobility shift assay) [nM] | IC50 [2, 5] [nM] | SMILES |
| --- | --- | --- | --- | --- |
| – | – | 0.74 | 122 | CCN(c1cc2c(c(CN)n1)CN(c1cccc(-c3nncn3CC)n1)C2=O)C(C)C [Example 141, 4-(aminomethyl)-6-[ethyl(propan-2-yl)amino]-2-[6-(4-ethyl-4H-1,2,4-triazol-3-yl)pyridin-2-yl]-2,3-dihydro-1H-pyrrolo[3,4-c]pyridin-1-one] |
| – | – | < 0.08 | 54 | CCn1cnnc1-c1cccc(N2Cc3c(cc(N(C)C(C)C)nc3CN)C2=O)n1 [Example 89, 4-(aminomethyl)-2-[6-(4-ethyl-4H-1,2,4-triazol-3-yl)pyridin-2-yl]-6-[methyl(propan-2-yl)amino]-2,3-dihydro-1H-pyrrolo[3,4-c]pyridin-1-one] |
| – | – | 0.43 | 226 | CCn1cnnc1-c1cccc(N2Cc3c(cc(N4CCC4)nc3CNC)C2=O)n1 [Example 92, 6-(azetidin-1-yl)-2-[6-(4-ethyl-4H-1,2,4-triazol-3-yl)pyridin-2-yl]-4-[(methylamino)methyl]-2,3-dihydro-1H-pyrrolo[3,4-c]pyridin-1-one] |
| – | – | 0.73 | 106 | CCCn1cnnc1-c1cccc(N2Cc3c(cc(N4[C@H](C)CC[C@H]4C)nc3CN)C2=O)n1 [Example 136, 4-(aminomethyl)-6-[(2R,5R)-2,5-dimethylpyrrolidin-1-yl]-2-[6-(4-propyl-4H-1,2,4-triazol-3-yl)pyridin-2-yl]-2,3-dihydro-1H-pyrrolo[3,4-c]pyridin-1-one] |
| – | – | 0.09 | 28 | CCC(CC)n1cnnc1-c1cccc(N2Cc3c(cc(N4CCC[C@H]4C)nc3CN)C2=O)n1 [Example 143, 4-(aminomethyl)-6-[(2R)-2-methylpyrrolidin-1-yl]-2-{6-[4-(pentan-3-yl)-4H-1,2,4-triazol-3-yl]pyridin-2-yl}-2,3-dihydro-1H-pyrrolo[3,4-c]pyridin-1-one] |
| – | – | 0.33 | 257 | CNCc1nc(C2(C)CC2)cc2c1CN(c1cccc(N3C(=O)OC[C@@H]3CF)n1)C2=O [Example 91, 2-{6-[(4R)-4-(fluoromethyl)-2-oxo-1,3-oxazolidin-3-yl]pyridin-2-yl}-4-[(methylamino)methyl]-6-(1-methylcyclopropyl)-2,3-dihydro-1H-pyrrolo[3,4-c]pyridin-1-one] |
| – | – | 0.1 | 14 | CCC(CC)n1cnnc1-c1cccc(N2Cc3c(cc(N4CCCC4(C)C)nc3CN)C2=O)n1 [Example 151] |
| – | – | 0.14 | 65 | CCC(CC)n1cnnc1-c1cccc(N2Cc3c(cc(N(C)CC)nc3CN)C2=O)n1 [Example 153] |
| – | – | 0.19 | 104 | Cc1nnc(-c2cccc(N3Cc4c(cc(N5CCC[C@H]5C)nc4CN)C3=O)n2)n1C(C)C [Example 156] |
| – | – | 0.23 | 85 | CCn1c(C)nnc1-c1cccc(N2Cc3c(cc(N4CCC[C@@H]4C)nc3CN)C2=O)n1 [Example 157] |
| – | – | < 0.05 | 34 | CC(C)N(C)c1cc2c(c(CN)n1)CN(c1cccc(N3C(=O)OC[C@@H]3C)n1)C2=O [Example 100, 4-(aminomethyl)-2-{6-[(4S)-4-methyl-2-oxo-1,3-oxazolidin-3-yl]pyridin-2-yl}-6-[methyl(propan-2-yl)amino]-2,3-dihydro-1H-pyrrolo[3,4-c]pyridin-1-one] |
| – | – | 0.06 | 43 | CC[C@H](C)n1cnnc1-c1cccc(N2Cc3c(cc(N(C)CC)nc3CNC)C2=O)n1 [Example 173] |
| – | – | 0.28 | 76 | C[C@@H]1CC[C@@H](C)N1c1cc2c(c(CN)n1)CN(c1cccc(N3C(=O)OC[C@@H]3C)n1)C2=O [Example 137, 4-(aminomethyl)-6-[(2R,5R)-2,5-dimethylpyrrolidin-1-yl]-2-{6-[(4S)-4-methyl-2-oxo-1,3-oxazolidin-3-yl]pyridin-2-yl}-2,3-dihydro-1H-pyrrolo[3,4-c]pyridin-1-one] |
| – | – | 0.34 | 280 | CCCn1cnnc1-c1cccc(N2Cc3c(cc(C4(C)CC4)nc3CNC)C2=O)n1 [Example 94, 4-[(methylamino)methyl]-6-(1-methylcyclopropyl)-2-[6-(4-propyl-4H-1,2,4-triazol-3-yl)pyridin-2-yl]-2,3-dihydro-1H-pyrrolo[3,4-c]pyridin-1-one] |
| – | – | 0.12 | 95 | CCCn1cnnc1-c1cccc(N2Cc3c(cc(N(C)C(C)C)nc3CN)C2=O)n1 [Example 82, 4-(aminomethyl)-6-[methyl(propan-2-yl)amino]-2-[6-(4-propyl-4H-1,2,4-triazol-3-yl)pyridin-2-yl]-2,3-dihydro-1H-pyrrolo[3,4-c]pyridin-1-one] |
| – | – | 0.12 | 46 | CCC(CC)n1cnnc1-c1cccc(N2Cc3c(cc(N4CCC[C@@H]4C)nc3CN)C2=O)n1 [Example 152] |
| – | – | 0.31 | 93 | CCC(CC)n1cnnc1-c1cccc(N2Cc3c(cc(C4CC4)nc3CN)C2=O)n1 [Example 129, 4-(aminomethyl)-6-cyclopropyl-2-{6-[4-(pentan-3-yl)-4H-1,2,4-triazol-3-yl]pyridin-2-yl}-2,3-dihydro-1H-pyrrolo[3,4-c]pyridin-1-one] |
